Assay [1] concerns the target T1, Bcl-2 protein (Recombinant Human Bcl-2 Protein) (Homo sapiens, UniProt P10415).
T1 construct: purchased Novus Biologicals NBP2-34889
Nature of the assay: AS-MS evaluation of binding of the mixture libraries of Examples 8 and 9 to Bcl-2, ASMS ratio (%), Example 11. The note with it: for AS-MS(%) N1 / AS-MS(%) N2 / AS-MS(%) N3 / AS-MS(%) N4: ASMS ratio, mixtures obtained from Example 9, 10 uM Bcl-2 protein; for AS-MS(%) N1: replicate N1; for AS-MS(%) N2: replicate N2; for AS-MS(%) N3: replicate N3 (additional day); for AS-MS(%) N4: replicate N4 (additional day); for binding to Bcl-2 detected by AS-MS: positive controls added to the mixtures of Examples 8 and 9, final compound concentration 100 nM. How it is done:
DMSO solutions (prepared into approximately 5 mM based on calculation from the average molecular weight of each mixture) of the mixtures of each Example shown in Table 11-1-1 were respectively dispensed to 8 wells of MICROPLATE, 96-WELL, PP, V-BOTTOM (Greiner Bio-One International GmbH, 651201). 400 nL each from the 8 wells of the mixtures obtained from Example 8 was dispensed into 3 designated wells while 200 nL each from the 8 wells of the mixtures obtained from Example 9 was dispensed into 3 designated wells, using LABCYTE ECHO® 555 acoustic dispensing system (Beckman Coulter, Inc.). 200 nL each of two types of 10 μM positive controls (B2Q045-01 and B2Q048-01) was dispensed to the mixtures obtained from Example 8. Likewise, 100 nL each of two types of 20 μM positive controls and 400 nL of a DMSO solution by backfill was dispensed to the mixtures obtained from Example 9. Further, Bcl-2 protein (Novus Biologicals, NBP2-34889, Recombinant Human Bcl-2 Protein, Lot E60145051) (19.2 μL) prepared at 5 µM (final protein concentration) for the mixtures obtained from Example 8 and 10 µM (final protein concentration) for the mixtures obtained from Example 9, in advance using a Tris-HCl buffer (25 mM Tris-HCl, pH 7.4, 150 mM NaCl, 0.025% Tween-20, and 1 mM DTT) was added to the well containing the dispensed 1000 compounds or 500 compounds (final compound concentration: 100 nM), and the plate was incubated at 23° C. for 1 hour in the dark. Subsequently, 200 μL of an assay buffer (25 mM Tris-HCl, pH 7.4, 150 mM NaCl, 0.025% Tween-20, and 1 mM DTT) was centrifuged three times at 2000×G at 4° C. for 2 minutes using 96-well MacroSpin column, P-2 Material (Harvard Bioscience, Inc., 74-5655) that had been allowed to swell to condition the 96-well MacroSpin column. Subsequently, 20 μL of the sample thus incubated was added to the 96-well MacroSpin column, P-2 Material after the completion of conditioning, and SEC treatment was performed by centrifugation at 2000×G for 2 minutes. 32 μL of a 1:1 mixed solution of acetonitrile and methanol (LC/MS grade, FUJIFILM Wako Pure Chemical Corp.) was added to a flow-through liquid from SEC, and the mixture was centrifuged at 1800×G at 4° C. for 5 minutes. The supernatant was used as analysis sample ASMS (A). By a similar operation, a sample prepared at 500 compounds/well or 1000 compounds/well and supplemented with only a Tris-HCl buffer containing no Bcl-2 protein was incubated under the same conditions as above, and the same organic solvent as above was added thereto without 96-well MacroSpin column treatment. A supernatant obtained by a centrifugation operation was used as STD (B). Next, by a similar operation, a sample prepared at 1000 compounds/well or 500 compounds/well and supplemented with only a Tris-HCl buffer containing no Bcl-2 protein was incubated under the same conditions as above and treated with 96-well MacroSpin column in the same manner as above, and the same organic solvent as above was added thereto. A supernatant obtained by a centrifugation operation was used as BK (C). These samples were measured by reverse-phase LC/MS.
Then, the samples A, B and C were analyzed for the 1000 compounds or 500 compounds using TraceFinder 5.1 (Thermo Fisher Scientific Inc.) and CHANCE Software (in-house), and an ASMS ratio (%) was calculated according to the following expression.
The mixtures obtained from Example 8 were tested at the number of data of 2 (N1 and N2) in order to ensure reproducibility. The mixtures obtained from Example 9 were tested at the total number of data 4 (N1,N2, N3, and N4) involving the number of data of 2/day (N1 and N2) and data obtained on additional days.

A further assay addresses T2, Human Bcl-2 protein (Homo sapiens, UniProt P10415).
T2 construct: purchased Novus Biologicals
Nature of the assay: Evaluation of binding of compound to Bcl-2 by surface plasmon resonance (SPR)-2, Example 13. The conditions noted are these: for Kd: Biacore T200, biotinylated Bcl-2 immobilized on Sensor Chip SA, 15° C., read-out: Equilibrium dissociation constant KD; for equilibrium dissociation constant KD compared with B2Q045-01 (KD=1.20 μM) or B2Q048-01 (KD=0.480 μM): Biacore T200, 15° C. The method, then: A surface plasmon resonance method was used in order to analyze the binding affinity of the compounds synthesized in Example 12 for Bcl-2, which are shown in Table 13-1. The apparatus used was Biacore T200 (GE Healthcare Japan Corp.), and the running buffer used was HBS (10 mM HEPES-NaOH and 150 mM NaCl, pH 7.4) supplemented with 1 mM DTT, 3 mM EDTA, 0.01% Tween 20 and 4% DMSO. Human Bcl-2 protein (Novus Biologicals) was biotinylated using EZ-Link NHS-PEG4-Biotin (Thermo Fisher scientific Inc.) and immobilized on the surface of Sensor Chip SA (Cytiva). Then, compound solutions having a plurality of concentrations and the running buffer (blank) were added to the Bcl-2-immobilized surface to obtain the binding response of the compounds. Measurement was performed at 15° C.
The obtained sensorgrams were treated with Biacore T200 Evaluation Software, and the equilibrium dissociation constant KD of each compound for Bcl-2 was determined as shown in the following Table 13-2.

T2 sequence (P10415 whole entry): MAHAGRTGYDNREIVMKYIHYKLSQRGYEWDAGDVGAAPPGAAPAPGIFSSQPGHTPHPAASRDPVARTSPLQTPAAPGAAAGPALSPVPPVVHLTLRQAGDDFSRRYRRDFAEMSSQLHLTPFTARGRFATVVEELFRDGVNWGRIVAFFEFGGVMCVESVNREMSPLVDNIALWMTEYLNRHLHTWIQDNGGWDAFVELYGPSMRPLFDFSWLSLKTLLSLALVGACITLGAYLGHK
T1 sequence (P10415 whole entry): as above

On to `CC(C(=O)Nc1ccccc1)c1cc(O)cc(N2CCN(c3ccc(C(=O)NS(=O)(=O)c4ccc(NCCSc5ccccc5)c([N+](=O)[O-])c4)cc3)CC2)c1` (stereo not drawn) [2-2-d1E03-1-0417], for which, in assay [1], the “AS-MS(%) N1” value came out at 34.2%, the “AS-MS(%) N2” value was determined as 33.3%, the “AS-MS(%) N3” value came to 44.4% and the “AS-MS(%) N4” value is on record as 38.0%. At Human Bcl-2 protein, the Kd is 7910 nM.
For `CC(C(=O)Nc1ccc(F)cc1)c1cc(O)cc(N2CCN(c3ccc(C(=O)NS(=O)(=O)c4ccc(NCCSc5ccccc5)c([N+](=O)[O-])c4)cc3)CC2)c1` (stereo not drawn) [2-2-d1E03-1-0454], in assay [1], the “AS-MS(%) N1” value worked out at 34.7%, the “AS-MS(%) N2” value is 33.4%, the “AS-MS(%) N3” value amounted to 39.2% and the “AS-MS(%) N4” value is 38.2%. In addition, the Kd on Human Bcl-2 protein worked out at 15200 nM.
As for `CC(C(=O)Nc1nc2ccccc2s1)c1cc(O)cc(N2CCN(c3ccc(C(=O)NS(=O)(=O)c4ccc(NCCSc5ccccc5)c([N+](=O)[O-])c4)cc3)CC2)c1` (stereo not drawn) [2-2-d1E03-1-0495], in assay [1], the “AS-MS(%) N1” value amounted to 28.9%, the “AS-MS(%) N2” value was 38.1%, the “AS-MS(%) N3” value worked out at 35.6% and the “AS-MS(%) N4” value stood at 39.3%. For the same compound, the Kd on Human Bcl-2 protein came to 5340 nM.
Regarding `CC(C(=O)Nc1ccccc1)c1cc(O)cc(N2CCN(c3ccc(C(=O)NS(=O)(=O)c4ccc(N[C@H](CCN5CCOCC5)CSc5ccccc5)c([N+](=O)[O-])c4)cc3)CC2)c1` (stereo partly drawn) [2-2-d1E04-1-0417], in assay [1], the “AS-MS(%) N1” value was 70.3%, the “AS-MS(%) N2” value turned out to be 77.8%, the “AS-MS(%) N3” value amounted to 72.8% and the “AS-MS(%) N4” value came to 71.8%. Moreover, at Human Bcl-2 protein, the “equilibrium dissociation constant KD compared with B2Q045-01 (KD=1.20 μM) or B2Q048-01 (KD=0.480 μM)” value is reported as “smaller equilibrium dissociation constant KD” and the Kd is 582 nM.
`Cc1ccc(NC(=O)C(C)c2cc(O)cc(N3CCN(c4ccc(C(=O)NS(=O)(=O)c5ccc(N[C@H](CCN6CCOCC6)CSc6ccccc6)c([N+](=O)[O-])c5)cc4)CC3)c2)cc1` (stereo partly drawn) [2-2-d1E04-1-0446]: in assay [1], the “AS-MS(%) N1” value was 57.8%, the “AS-MS(%) N2” value came to 68.3%, the “AS-MS(%) N3” value stood at 60.9% and the “AS-MS(%) N4” value came to 58.1%. On Human Bcl-2 protein, the “equilibrium dissociation constant KD compared with B2Q045-01 (KD=1.20 μM) or B2Q048-01 (KD=0.480 μM)” value is given as “smaller equilibrium dissociation constant KD” and the Kd was 775 nM.
Take `CC(C(=O)Nc1ccc(F)cc1)c1cc(O)cc(N2CCN(c3ccc(C(=O)NS(=O)(=O)c4ccc(N[C@H](CCN5CCOCC5)CSc5ccccc5)c([N+](=O)[O-])c4)cc3)CC2)c1` (stereo partly drawn) [2-2-d1E04-1-0454]: in assay [1], the “AS-MS(%) N1” value was 72.6%, the “AS-MS(%) N2” value amounted to 87.8%, the “AS-MS(%) N3” value was determined as 78.5% and the “AS-MS(%) N4” value worked out at 74.6%. Besides, at Human Bcl-2 protein, the “equilibrium dissociation constant KD compared with B2Q045-01 (KD=1.20 μM) or B2Q048-01 (KD=0.480 μM)” value was “smaller equilibrium dissociation constant KD” and the Kd was determined as 788 nM.
For the compound `CC(C(=O)Nc1nc2ccccc2s1)c1cc(O)cc(N2CCN(c3ccc(C(=O)NS(=O)(=O)c4ccc(N[C@H](CCN5CCOCC5)CSc5ccccc5)c([N+](=O)[O-])c4)cc3)CC2)c1` (stereo partly drawn) [2-2-d1E04-1-0495], in assay [1], the “AS-MS(%) N1” value worked out at 59.4%, the “AS-MS(%) N2” value is on record as 93.2%, the “AS-MS(%) N3” value stood at 85.8% and the “AS-MS(%) N4” value is reported as 69.0%. Besides, on Human Bcl-2 protein, the “equilibrium dissociation constant KD compared with B2Q045-01 (KD=1.20 μM) or B2Q048-01 (KD=0.480 μM)” value is “smaller equilibrium dissociation constant KD” and the Kd is 162 nM.
With `CC(C(=O)Nc1ccc(C(F)(F)F)cc1)c1cc(O)cc(N2CCN(c3ccc(C(=O)NS(=O)(=O)c4ccc(N[C@H](CCN5CCOCC5)CSc5ccccc5)c([N+](=O)[O-])c4)cc3)CC2)c1` (stereo partly drawn) [2-2-d1E04-1-0498], in assay [1], the “AS-MS(%) N1” value is reported as 45.5%, the “AS-MS(%) N2” value is 61.4%, the “AS-MS(%) N3” value was determined as 52.7% and the “AS-MS(%) N4” value is reported as 51.0%. Besides, the Kd on Human Bcl-2 protein worked out at 2510 nM.
On to `CCOc1cc(C(C)C(=O)Nc2ccccc2)cc(N2CCN(c3ccc(C(=O)NS(=O)(=O)c4ccc(N[C@H](CCN5CCOCC5)CSc5ccccc5)c([N+](=O)[O-])c4)cc3)CC2)c1` (stereo partly drawn) [2-2-d1E04-2-0417], for which, in assay [1], the “AS-MS(%) N1” value turned out to be 43.8%, the “AS-MS(%) N2” value turned out to be 48.8%, the “AS-MS(%) N3” value was 53.8% and the “AS-MS(%) N4” value is on record as 65.5%. Besides, at Human Bcl-2 protein, the “equilibrium dissociation constant KD compared with B2Q045-01 (KD=1.20 μM) or B2Q048-01 (KD=0.480 μM)” value is listed as “smaller equilibrium dissociation constant KD” and the Kd was 846 nM.
For the compound `CCOc1cc(C(C)C(=O)Nc2ccc(C)cc2)cc(N2CCN(c3ccc(C(=O)NS(=O)(=O)c4ccc(N[C@H](CCN5CCOCC5)CSc5ccccc5)c([N+](=O)[O-])c4)cc3)CC2)c1` (stereo partly drawn) [2-2-d1E04-2-0446], in assay [1], the “AS-MS(%) N1” value came out at 62.1%, the “AS-MS(%) N2” value amounted to 45.0%, the “AS-MS(%) N3” value was 44.0% and the “AS-MS(%) N4” value is 46.2%. Moreover, the Kd on Human Bcl-2 protein was determined as 1330 nM.
On to `CCOc1cc(C(C)C(=O)Nc2ccc(F)cc2)cc(N2CCN(c3ccc(C(=O)NS(=O)(=O)c4ccc(N[C@H](CCN5CCOCC5)CSc5ccccc5)c([N+](=O)[O-])c4)cc3)CC2)c1` (stereo partly drawn) [2-2-d1E04-2-0454], for which, in assay [1], the “AS-MS(%) N1” value is given as 36.4%, the “AS-MS(%) N2” value is listed as 42.2%, the “AS-MS(%) N3” value came out at 58.2% and the “AS-MS(%) N4” value stood at 62.7%. In addition, on Human Bcl-2 protein, the “equilibrium dissociation constant KD compared with B2Q045-01 (KD=1.20 μM) or B2Q048-01 (KD=0.480 μM)” value is “smaller equilibrium dissociation constant KD” and the equilibrium dissociation constant (Kd) is 1060 nM.
For the compound `CCOc1cccc(-c2ccccc2CN2CCN(c3ccc(C(=O)NS(=O)(=O)c4ccc(NCCSc5ccccc5)c([N+](=O)[O-])c4)cc3)CC2)c1` [Compound B2Q045-01, 4-[4-[[2-(3-ethoxyphenyl)phenyl]methyl]piperazin-1-yl]-N-[3-nitro-4-(2-phenylsulfanylethylamino)phenyl]sulfonylbenzamide], the “binding to Bcl-2 detected by AS-MS” value in assay [1] is “binding to Bcl-2 was detected”.
For the compound `CCOc1cncc(-c2ccccc2CN2CCN(c3ccc(C(=O)NS(=O)(=O)c4ccc(NCCSc5ccccc5)c([N+](=O)[O-])c4)cc3)CC2)c1` [Compound B2Q046-01, 4-[4-[[2-(5-ethoxypyridin-3-yl)phenyl]methyl]piperazin-1-yl]-N-[3-nitro-4-(2-phenylsulfanylethylamino)phenyl]sulfonylbenzamide], the “binding to Bcl-2 detected by AS-MS” value in assay [1] is listed as “binding to Bcl-2 was detected”.

These data come from patent publication US20250154686A1, “COMPOUND LIBRARY” (CHUGAI SEIYAKU KABUSHIKI KAISHA, priority 2021, published 2025).
